The text below walks through data of patent publication US20040209891A1, “Treatment of type 2 diabetes with inhibitors of dipeptidyl peptidase IV” (priority 2001, published 2004).

The subject of one test is ZDF rat. Description: Effect of long-term inhibition of DP-IV in ZDF rat (four weeks dosing). The test is classed as in vivo. As to conditions: male ZDF rats; for Glycaemia: day of development of significant hyperglycaemia: obese control hyperglycaemic at day 8. An excerpt:
Control animals are given vehicle. A group of untreated lean rats is used as a comparison. Glycaemia, insulinaemia, body weight, food and water intake, and plasma triglyceride and free fatty acid levels are monitored throughout the study.

Another test addresses Human DP-IV (Homo sapiens, UniProt P27487). The test is classed as biochemical. The following applies: substrate Ala-Pro-AFC, fluorescence.

Where a name gives a salt, the structure may show the parent alone.

Human DP-IV, sequence (P27487 whole entry): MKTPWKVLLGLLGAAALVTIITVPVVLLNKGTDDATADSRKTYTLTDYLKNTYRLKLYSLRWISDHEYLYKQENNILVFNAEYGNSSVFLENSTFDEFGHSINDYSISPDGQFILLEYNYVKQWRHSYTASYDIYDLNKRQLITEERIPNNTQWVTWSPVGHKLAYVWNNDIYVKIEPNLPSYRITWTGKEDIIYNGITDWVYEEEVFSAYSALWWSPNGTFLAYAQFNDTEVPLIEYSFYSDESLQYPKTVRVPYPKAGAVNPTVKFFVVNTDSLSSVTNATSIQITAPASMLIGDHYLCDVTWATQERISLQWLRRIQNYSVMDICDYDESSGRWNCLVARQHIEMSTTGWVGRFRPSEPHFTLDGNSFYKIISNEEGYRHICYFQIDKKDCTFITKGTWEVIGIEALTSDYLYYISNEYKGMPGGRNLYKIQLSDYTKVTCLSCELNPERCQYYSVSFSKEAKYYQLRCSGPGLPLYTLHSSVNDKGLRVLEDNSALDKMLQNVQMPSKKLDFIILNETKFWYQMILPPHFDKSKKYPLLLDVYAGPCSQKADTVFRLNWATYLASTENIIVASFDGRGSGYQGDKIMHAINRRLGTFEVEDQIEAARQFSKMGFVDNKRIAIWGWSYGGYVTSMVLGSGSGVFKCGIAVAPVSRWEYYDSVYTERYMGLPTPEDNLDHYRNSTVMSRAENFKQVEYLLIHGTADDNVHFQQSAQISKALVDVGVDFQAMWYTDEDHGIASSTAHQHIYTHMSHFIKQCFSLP
Experimental for Human DP-IV: The in vitro inhibitory action of the compounds is determined in a fluorimetric assay. Human DP-IV is incubated with a standard substrate, Ala-Pro-AFC, in the presence of various concentrations of the inhibitor. The reaction is monitored by measuring the increase in fluorescence due to the reaction product, AFC. Using standard manipulations, an inhibitory constant, Ki, is determined.

With `CC(C)(C)[C@H](N)C(=O)N1CCC[C@H]1C#N` [Example 1A, (2S)-1-((2′S)-2′-amino-3′,3′-dimethylbutanoyl)pyrrolidine-2-carbonitrile hydrochloride], the figures for the “Glycaemia: day of development of significant hyperglycaemia” value in the test on ZDF rat (10 mg/kg p.o. once daily) and in the test with ZDF rat (10 mg/kg p.o. twice daily) were 15 days and 24 days, respectively. Besides, the “Insulinaemia: day on which peak insulin level is reached” value with ZDF rat (10 mg/kg p.o. once daily, obese control peak by day 8) amounted to 11 days.
One may read the Ki as a dissociation constant, usually derived from enzyme kinetics or from competition with a known ligand. Read a low Ki as a stronger hold on the target. In turn, `N#C[C@@H]1CCCN1C(=O)[C@@H](N)CCCNC(=O)c1cnccn1` [Example 1B, (2S)-1-((2′S)-2′-amino-5′-pyrazinecarbonylaminopentanoyl)pyrrolidine-2-carbonitrile trifluoroacetate] came in with a Ki on Human DP-IV of 400 pM.
